Data published in patent US10421778B2, “Isoform-selective lysine deacetylase inhibitors” (WASHINGTON UNIVERSITY, priority 2015, dated 2019).
Like-named read-outs stand apart in the source and are kept apart here.

What was measured:
recombinant human KDAC1 = molecular target: T1, recombinant human KDAC1 (Homo sapiens, UniProt Q13547); assay: KDAC inhibition assay, Caliper EZ Reader II; type: biochemical; details: for KDAC Inhibition Activity KDAC1 (% inhibition): % inhibition at 30 μM
T1 construct: purchased BPS Bioscience

[1] = tested on: Resting CD4+ T cells isolated from a patient fully suppressed on antiretroviral therapy; assay: Reactivation of virus in resting CD4+ T cells of a suppressed patient (HIV-1 p24 ELISA); type: cell-based; details: 1 μM, 48 hours, then co-culture with MOLT4/CCR5 cells 7 days; preliminary data
Description: Cells were washed and co-cultured with MOLT4/CCR5 cells for 7 days. R Cellular supernatants were collected for HIV-1 p24 ELISA. N.R—non reactive.

recombinant human KDAC8 = molecular target: T2, recombinant human KDAC8 (Homo sapiens, UniProt Q9BY41); assay: KDAC inhibition assay, Caliper EZ Reader II; type: biochemical; details: for KDAC Inhibition Activity KDAC8 (% inhibition): % inhibition at 30 μM
T2 construct: purchased BPS Bioscience
T2 sequence (Q9BY41 1-377): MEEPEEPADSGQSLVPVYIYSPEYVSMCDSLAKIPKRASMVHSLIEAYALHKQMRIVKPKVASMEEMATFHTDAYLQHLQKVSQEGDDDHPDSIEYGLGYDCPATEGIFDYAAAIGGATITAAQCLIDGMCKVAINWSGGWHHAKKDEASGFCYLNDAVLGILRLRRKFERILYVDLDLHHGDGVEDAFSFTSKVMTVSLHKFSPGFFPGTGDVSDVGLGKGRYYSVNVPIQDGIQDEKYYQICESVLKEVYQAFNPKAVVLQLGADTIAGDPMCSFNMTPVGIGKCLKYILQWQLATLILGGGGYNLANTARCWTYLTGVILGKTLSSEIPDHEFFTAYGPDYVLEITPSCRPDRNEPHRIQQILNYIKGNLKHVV

KDAC1, KDAC2, and KDAC3 = details: background statement; cited from earlier work
[2] = tested on: JLAT 10.6 cells, which have HIV-1-GFP stably integrated; assay: Reactivation of HIV from latency in JLAT 10.6 cells (GFP, FACS); type: cell-based; details: J-Lat 10.6, 24 h, read-out: EC50 in reactivating HIV from latency
Description: JLAT 10.6 cells, which have HIV-1-GFP stably integrated, were incubated with the indicated compounds for 24 hours. […] Upon stimulation with an appropriate agent, they can produce HIV as measured by GFP recognition with fluorescent-activated cell sorting (FACS). Cells were fixed and FACS performed for GFP as a surrogate for HIV production using TNF alpha as positive control. Largazoles are SDL256, JMF 1080, and SDL148. Relative activation is normalized to TNF alpha.

recombinant human KDAC6 = molecular target: T3, recombinant human KDAC6 (Homo sapiens, UniProt Q9UBN7); assay: KDAC inhibition assay, Caliper EZ Reader II; type: biochemical; details: for KDAC Inhibition Activity KDAC6 (% inhibition): % inhibition at 30 μM
T3 construct: purchased BPS Bioscience
T3 sequence (Q9UBN7 1-1215): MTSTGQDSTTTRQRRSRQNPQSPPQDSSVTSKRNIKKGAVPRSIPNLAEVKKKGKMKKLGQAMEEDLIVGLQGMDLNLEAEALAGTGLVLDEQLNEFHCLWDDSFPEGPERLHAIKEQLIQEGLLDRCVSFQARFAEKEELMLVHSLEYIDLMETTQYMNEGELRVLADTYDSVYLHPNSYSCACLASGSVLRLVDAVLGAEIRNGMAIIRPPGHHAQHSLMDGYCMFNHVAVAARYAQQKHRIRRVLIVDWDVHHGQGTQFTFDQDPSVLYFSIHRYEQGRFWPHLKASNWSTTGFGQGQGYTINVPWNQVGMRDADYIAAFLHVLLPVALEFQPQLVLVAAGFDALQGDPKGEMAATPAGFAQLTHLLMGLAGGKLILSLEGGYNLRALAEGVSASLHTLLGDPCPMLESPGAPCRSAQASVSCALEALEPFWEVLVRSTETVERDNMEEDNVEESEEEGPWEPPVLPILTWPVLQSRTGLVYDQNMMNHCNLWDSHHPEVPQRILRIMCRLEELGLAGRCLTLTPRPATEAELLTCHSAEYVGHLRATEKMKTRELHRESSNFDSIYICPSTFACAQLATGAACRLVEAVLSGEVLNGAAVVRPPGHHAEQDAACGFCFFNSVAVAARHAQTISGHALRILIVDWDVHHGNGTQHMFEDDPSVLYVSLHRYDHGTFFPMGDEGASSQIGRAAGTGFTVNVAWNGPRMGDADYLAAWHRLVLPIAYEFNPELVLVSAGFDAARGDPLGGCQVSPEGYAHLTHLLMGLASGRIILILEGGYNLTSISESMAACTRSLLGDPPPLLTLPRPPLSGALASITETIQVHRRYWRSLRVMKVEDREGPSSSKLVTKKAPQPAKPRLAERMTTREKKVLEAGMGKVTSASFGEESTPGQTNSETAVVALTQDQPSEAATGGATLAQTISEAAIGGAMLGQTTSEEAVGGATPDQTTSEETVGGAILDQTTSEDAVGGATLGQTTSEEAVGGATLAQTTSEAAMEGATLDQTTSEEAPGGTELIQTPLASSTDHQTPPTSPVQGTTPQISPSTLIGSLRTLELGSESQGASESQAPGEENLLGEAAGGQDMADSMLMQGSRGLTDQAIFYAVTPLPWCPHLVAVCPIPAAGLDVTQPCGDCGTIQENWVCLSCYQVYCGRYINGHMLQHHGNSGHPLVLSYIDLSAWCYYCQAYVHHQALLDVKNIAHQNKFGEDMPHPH

recombinant human KDAC3 = molecular target: T4, recombinant human KDAC3 (Homo sapiens, UniProt O15379); assay: KDAC inhibition assay, Caliper EZ Reader II; type: biochemical; details: for KDAC Inhibition Activity KDAC3 (% inhibition): % inhibition at 30 μM
T4 construct: purchased BPS Bioscience
T4 sequence (O15379 whole entry): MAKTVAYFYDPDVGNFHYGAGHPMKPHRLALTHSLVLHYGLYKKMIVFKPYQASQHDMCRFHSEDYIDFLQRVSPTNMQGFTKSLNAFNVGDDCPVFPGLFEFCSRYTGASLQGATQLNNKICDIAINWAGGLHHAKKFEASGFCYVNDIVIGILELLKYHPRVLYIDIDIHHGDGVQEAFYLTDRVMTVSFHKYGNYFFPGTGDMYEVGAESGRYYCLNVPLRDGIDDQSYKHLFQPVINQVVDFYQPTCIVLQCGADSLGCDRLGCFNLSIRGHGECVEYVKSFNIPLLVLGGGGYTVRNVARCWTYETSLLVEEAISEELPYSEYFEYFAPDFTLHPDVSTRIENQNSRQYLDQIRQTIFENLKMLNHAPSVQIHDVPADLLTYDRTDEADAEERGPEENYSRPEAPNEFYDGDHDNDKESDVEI
T4 sequence (Q9Y618 395-489 partner limits assumed): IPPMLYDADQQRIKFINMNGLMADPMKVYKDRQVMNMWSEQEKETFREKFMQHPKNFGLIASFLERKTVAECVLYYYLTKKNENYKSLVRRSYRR

T1 sequence (Q13547 whole entry): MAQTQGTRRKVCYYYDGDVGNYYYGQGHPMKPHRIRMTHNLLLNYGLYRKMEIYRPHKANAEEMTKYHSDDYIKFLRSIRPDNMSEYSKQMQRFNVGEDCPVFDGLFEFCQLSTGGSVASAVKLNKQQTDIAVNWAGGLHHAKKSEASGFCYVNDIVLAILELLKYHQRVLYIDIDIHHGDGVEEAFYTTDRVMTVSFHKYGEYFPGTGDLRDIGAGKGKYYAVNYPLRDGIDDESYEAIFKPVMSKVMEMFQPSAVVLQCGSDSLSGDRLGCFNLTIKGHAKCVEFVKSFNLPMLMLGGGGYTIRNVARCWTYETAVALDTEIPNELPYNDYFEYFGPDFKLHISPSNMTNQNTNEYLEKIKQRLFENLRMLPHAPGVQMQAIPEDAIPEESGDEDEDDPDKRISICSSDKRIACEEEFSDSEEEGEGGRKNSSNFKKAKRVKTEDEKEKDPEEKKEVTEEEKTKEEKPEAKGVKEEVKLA

| Compound | KDAC Inhibition Activity KDAC6 (% inhibition) (recombinant human KDAC6) | KDAC Inhibition Activity KDAC1 (% inhibition) (recombinant human KDAC1) | KDAC Inhibition Activity KDAC3 (% inhibition) (recombinant human KDAC3) | KDAC Inhibition Activity KDAC8 (% inhibition) (recombinant human KDAC8) [%] | inhibition at 30 µM (recombinant human KDAC8) [%] | EC50 [2] [nM] | further results |
| --- | --- | --- | --- | --- | --- | --- | --- |
| CCCCCCCC(=O)SCC/C=C/[C@@H]1CC(=O)NCc2nc(cs2)C2=N[C@@](C)(CS2)C(=O)N[C@@H](C(C)C)C(=O)O1 [Largazole, largazole] | – | – | – | – | 28 | 150 | IC50 (recombinant human KDAC1): 2330 nM; reactivation of virus from latency, HIV-1 p24 ELISA in culture supernatants [1]: able to reactivate virus from latency; potency against KDAC1, KDAC2, and KDAC3 (KDAC1, KDAC2, and KDAC3): picomolar range |
| CC(=O)SCC/C=C/[C@@H]1CC(=O)NCc2cc(ccn2)C2=N[C@@](C)(CS2)C(=O)N[C@@H](C(C)C)C(=O)O1 [SD-L-256, reference compound] | – | – | – | – | 39 | 1600 | IC50 (recombinant human KDAC6; 10-point dose curve from 30 μM): 1610 nM; IC50 (recombinant human KDAC1; 10-point dose curve from 30 μM): 3480 nM; IC50 (recombinant human KDAC3; 10-point dose curve from 30 μM, read-out: KDAC Inhibition Activity (IC50) KDAC3): 470 nM; IC50 (recombinant human KDAC3; read-out: KDAC Inhibition Activity (pIC50) KDAC3 (converted)): 479 nM; IC50 (recombinant human KDAC8; 10-point dose curve from 30 μM): > 30000 nM |

Second part, led by results:

| KDAC Inhibition Activity KDAC6 (% inhibition) (recombinant human KDAC6) | KDAC Inhibition Activity KDAC1 (% inhibition) (recombinant human KDAC1) | KDAC Inhibition Activity KDAC3 (% inhibition) (recombinant human KDAC3) | KDAC Inhibition Activity KDAC8 (% inhibition) (recombinant human KDAC8) [%] | Compound | inhibition at 30 µM (recombinant human KDAC8) [%] | EC50 [2] [nM] | further results |
| --- | --- | --- | --- | --- | --- | --- | --- |
| 23% | Not active | Not active | 6 | Cyclo-^DAsp(^DPro-Pro-Val)-NHCH2CH2SH [Compound 5b] | – | – | – |
| 15-36% 26% average | 8% | 17-31% 24% average | 6 | Cyclo-Asp(^DPro-Pro-Val)-NHCH2CH2CH2SH [Compound 6a] | – | – | – |
| 1% | 4% | 3% | 22 | Cyclo-^DAsp(^DPro-Pro-Val)-NHCH2CH2CH2S(═O)2CH3 [Compound 9b] | – | – | – |
